Laboratory results: patent US9145381B2, “Derivative of [(3-hydroxy-4-pyron-2-yl)-methyl]-amine and use thereof as anti-neoplastic drugs” (Universita' Degli Studi Di Urbino, priority 2008, dated 2015)

How the values were obtained:
Format in all cases: cell-based
[1] = system: HeLa cells (uterine cervix cancer); assay: Antiproliferative activity, Trypan blue viability; settings: 72 hours, treatments repeated every 24 hours, maximum over the lines
Procedure: (§1) FIGS. 3 and 4 show a diagram with the inhibiting concentrations (IC50) of L1 (FIG. 3) and L9 (FIG. 4) in different tumour cell lines. Cells in an exponential growth phase were treated for 72 hours with L1 and L9 and then harvested and stained with Trypan blue in order to determine viability. The values of IC50 have been computed for each compound as the concentration that can determine a 50% reduction in viable cells with respect to a non-treated control.
(§2) In order to evaluate the ability of these compounds to inhibit the proliferation of tumour cells in vitro, eight cell lines were selected, four deriving from haematopoietic tumours and four deriving from solid tumours. The tested hematopoietic lines comprise three myeloid tumour cell lines (U937—acute monocytic leukaemia, NB4—acute promyelocytic leukaemia, HL-60—acute myeloid leukaemia) and a lymphoid tumour cell line (JURKAT—T cell leukaemia), while cell lines deriving from multiform glioblastoma (U-373MG), from uterine cervix cancer (HeLa), from malignant pleural mesothelioma (H-28) and from rhabdomyosarcoma (RH-4) have been used as lines representative of solid tumours. Each cell line has been grown in the appropriate growth medium at 37° C. (RPMI 1640 for the hematopoietic lines and DMEM for the adhering cells deriving from solid tumours—Cambrex, Walkersville, Md., USA) added with 10% FBS, 1% glutamine, 100 IU/ml penicillin, 100 μg/ml streptomycin in a highly humidified atmosphere at 5% CO2. The hematopoietic populations were diluted with preheated growth medium at 37° C. at a concentration of 1×10^5 cells/ml and aliquots of 2 ml were aliquoted in each single well of 6-well plates. The adhering cells were trypsinized, diluted with preheated growth medium at 37° C. and 0.5×10^5 cells were aliquoted in each single well of 6-well plates. The cells in an exponential growth phase were treated with different concentrations of L1 or L9. Both compounds were diluted in distilled water and the treatments were repeated every 24 hours. 72 hours after starting the treatments, cell viability was evaluated by means of Trypan blue staining and the inhibiting concentration (IC50) was computed for each cell line as the concentration allowing to reduce by 50% the number of viable cells, with respect to a non-treated control.

[2] = system: RH-4 cells (rhabdomyosarcoma); assay: Antiproliferative activity, Trypan blue viability; settings: 72 hours, treatments repeated every 24 hours, minimum over the lines
Procedure: as §1, §2

[3] = system: cell lines deriving from solid tumours (U-373MG, HeLa, H-28, RH-4); assay: Antiproliferative activity, Trypan blue viability; settings: cells deriving from solid tumours, 72 hours
Procedure: as §1, §2

[4] = system: hematopoietic cells (U937, NB4, HL-60, JURKAT); assay: Antiproliferative activity, Trypan blue viability; settings: 72 hours
Procedure: as §1, §2

tumour cell lines = assay: Cell cycle and apoptosis, propidium iodide cytofluorimetric analysis; settings: 72 hour treatment; for interruption of the cell cycle: tested tumour cell lines in general, different concentrations
Procedure: (§3) FIG. 5: Apoptosis induced by L1 after treatment for 72 hours at a concentration of 50 μM. FIGS. 6-13: Effects of L1 on the percentages of the different phases of the cell cycle after a 72 hour treatment at different concentrations. FIG. 14: Apoptosis induced by L9 after a 72 hour treatment at a concentration of 5 μM. FIGS. 15-22: Effects of L9 on the percentages of the different phases of the cell cycle after a 72 hour treatment at different concentrations.
(§4) The effects of L1 and L9 on the progression of the cell cycle and on its hypothetical ability to induce the apoptotic process were evaluated by cytofluorimetric analysis by means of propidium iodide staining of all of the previously tested cell lines. Cell treated with different concentrations of the two compounds, as previously disclosed, have been harvested and washed with cold phosphate buffer (1×PBS). The cells were resuspended in cold 70% ethanol and fixed at +4° C. for 24 hours. All of the samples were then centrifuged at 1300 rpm at +4° C. for 3 minutes and then resuspended in a solution containing propidium iodide (1×PBS; 0.1% Triton X-100, 0.1% sodium citrate, 250 μg/ml RNasi A, 50 μg/ml propidium iodide) and, after 24 hours of incubation at +4° C., a minimum of 1×10^4 events were acquired at the BD FACScan cytofluorimeter (BD Biosciences, San Jose, Calif., USA). The acquisitions were analysed by a FlowJo 5.7.2 software (Tree Star, Inc., Ashland, Oreg., USA) in order to determine the percentage of cells in different phases of the cell cycle and displaying hypoploid conditions (Apoptotic cells). The induction of programmed cell death was computed as the difference between the percentage of hypodiploid cells in treated and non-treated samples.

HL-60 cells = assay: Cell cycle, propidium iodide cytofluorimetric analysis; settings: HL-60 (printed H1-60 / JL-60), 72 hour treatment
Procedure: as §3, §4

HeLa cells = assay: as above; settings: 72 hour treatment
Procedure: as §3, §4

JURKAT cells = assay: as above; settings: 72 hour treatment
Procedure: as §3, §4

RH-4 cells = assay: as above; settings: RH-4, 72 hour treatment
Procedure: as §3, §4

U937 cells = assay: Fragmentation of genomic DNA, agarose gel electrophoresis; settings: U937, 72 hours; L1 25, 50, 100 μM; L9 2.5, 5, 10 μM
Procedure: The cells were treated for 72 hours with L1 and L9 at the concentrations shown in the Figure, the genomic DNA was then extracted, separated on a 2% agarose gel and stained with ethidium bromide.
The induction of apoptosis by compounds L1 and L9 has further been confirmed with the analysis of the fragmentation of the genomic DNA carried out by electrophoresis on an agarose gel. U937 cells treated with L1 (non-treated as a control) at concentrations of 25, 50, 100 μM and L9 at concentrations of 2.5, 5, 10 μM for 72 hours were harvested (about 2×10^6 cells), washed with cold 1×PBS and incubated in 2 ml of 1×TBS, 0.5% Tween20, 1 mM EDTA for 30 minutes at +4° C. After being centrifuged at 1200 rpm, for 5 minutes at +4° C., the cells were incubated in 0.5 ml of a solution at 0.1% SDS for 30 minutes at room temperature. The genomic DNA was then extracted by using a QIAquick Gel Extraction Kit (Qiagen, Hilden, Germany), electrophoretically separated by means of a 2% agarose gel and stained with ethidium bromide.

[5] = system: all tested tumour cell lines (U937, NB4, HL-60, JURKAT, U-373MG, HeLa, H-28, RH-4); assay: Antiproliferative activity, Trypan blue viability; settings: range over the tested cell lines, 72 hours, read-out: IC50 values in the different tested cell lines
Procedure: In order to evaluate the ability of these compounds to inhibit the proliferation of tumour cells in vitro, eight cell lines were selected, four deriving from haematopoietic tumours and four deriving from solid tumours. […] Each cell line has been grown in the appropriate growth medium at 37° C. […] The hematopoietic populations were diluted with preheated growth medium at 37° C. at a concentration of 1×10^5 cells/ml and aliquots of 2 ml were aliquoted in each single well of 6-well plates. The adhering cells were trypsinized, diluted with preheated growth medium at 37° C. and 0.5×10^5 cells were aliquoted in each single well of 6-well plates. […] Both compounds were diluted in distilled water and the treatments were repeated every 24 hours.

H-28 cells = assay: Cell cycle, propidium iodide cytofluorimetric analysis; settings: H-28, 72 hour treatment
Procedure: as §3, §4

| SMILES | IC50 [1] [µM] | IC50 [2] [µM] | IC50 [3] [µM] | IC50 [4] [µM] | interruption of the cell cycle (tumour cell lines) | induction of apoptosis (hypodiploid cells) (tumour cell lines; tumour cells, propidium iodide) | block of the cell cycle (HL-60 cells) | block of the cell cycle (HeLa cells) | block of the cell cycle (JURKAT cells) | block of the cell cycle (RH-4 cells) | fragmentation of genomic DNA (U937 cells) | IC50 [5] [µM] | block of the cell cycle (H-28 cells) |
| --- | --- | --- | --- | --- | --- | --- | --- | --- | --- | --- | --- | --- | --- |
| CN(CCN(C)Cc1occc(=O)c1O)Cc1occc(=O)c1O [Compound L1, N,N′-bis[(3-hydroxy-4-pyron-2-yl)methyl]-N,N′-dimethylethylendiamine] | 30.5 | 4.49 | 22 | 10.4 | interrupt the cell cycle of tumour cells in phase S and G2 in a concentration-dependent manner | induce apoptosis | mainly blocked in phase S | mainly blocked in phase S | severe block in G2 | severe block in G2 | concentration-dependent internucleosomic fragmentation |  |  |
| CN1CCN(Cc2occc(=O)c2O)CCN(C)CCN(Cc2occc(=O)c2O)CC1 [Compound L9, 4(N),10(N)-bis[(3-hydroxy-4-pyron-2-yl)methyl]-1,7-dimethyl-1,4,7,10-tetraazacyclododecane] |  |  |  |  | mainly blocked in phase G2 |  | moderate block in phase G1 | stop especially in phase S | stop especially in phase S |  | concentration-dependent internucleosomic fragmentation | 1.45 to 2.31 | moderate block in phase G1 |
